Patent US8722707B1, “Compositions and methods for inhibition of smooth muscle cell proliferation and neointimal hyperplasia” (The Ohio State University, priority 2009, dated 2014)

Key:
MMP-9 [1] = test: MMP-9 expression in SMCs (Western blot, immunofluorescence); assay type: cell-based, human; details: 10 μM for 12 or 24 h
Description: (§1) Western blotting was performed as reported previously (Selvendiran K, Tong L, Vishwanath S, Bratasz A, Trigg N J, Kutala V K, Hideg K, and Kuppusamy P, EF 24 induces G 2/M arrest and apoptosis in cisplatin-resistant human ovarian cancer cells by increasing PTEN expression. J Biol Chem 282::28609-28618).
(§2) SMCs, grown on Lab-Tek Chamber slides (Nalge Nunc International, Rochester, N.Y.), were fixed with 4% paraformaldehyde for 10 min at room temperature and then washed in PBS containing 0.05% Tween 20. Nonspecific reactions were blocked with Protein B lock Serum-Free (DAKO, Kyoto, Japan) and then incubated with an anti-PTEN, MMP-2, or MMP-9 antibody at 4 C overnight. After washing in PBS containing 0.05% Tween 20, the specimens were treated with Alexa Fluor goat anti-mouse IgG (H+L) antibody (Invitrogen, Carlsbad, Calif.) for 45 min at room temperature and then counterstained by propidium iodide after digestion of RNA by RNase (Invitrogen). The immunostaining of PTEN, MMP-2, and MMP-9 proteins was visualized using a fluorescence microscope (Nikon, Tokyo, Japan).
(§3) We investigated whether the HO-3867-induced PTEN expression could suppresses MMP expression in SMCs.

ATF-2 = ATF-2 activation in SMCs (Western blot); assay type: cell-based, human; parameters: dose or concentration left out as unconfirmed; details: HO-3867 (FIG. 3A legend)
Description: as §1
(§4) We next wanted to check the involvement of reactive oxygen species-mediated p38 mitogen-activated protein kinase pathways in the activation of ATF-2.

human aortic SMCs [2] = test: Serum-stimulated proliferation of human aortic SMCs (viable cell count); assay type: cell-based
Description: Human aortic SMCs were obtained at passage 3 (AoSMC; Lonza Walkersville, Inc., Walkersville, Md.). The cells were maintained in culture in a humidified incubator at 37 C and 5% CO2 in smooth muscle cell growth medium (SmG M-2). Cells were trypsinized and passaged at 95% confluence. Studies were performed using cells at passages 4 to 6 at 6 0 to 90% confluence. Cells were counted using an automated cell counter (NucleoCounter; New Brunswick Scientific, Edison, N.J.).
We first studied the effect of HO-3867 on serum-stimulated proliferation of human aortic SMCs, in vitro (FIG. 1A).
(§5) The cells were then treated with 0, 0.5, 1, 5, and 10 μM HO-3867 for 24 h, after which the cells were trypsinized and counted for viability. […] We observed inhibition of SMC proliferation by both phase-contrast microscopy (FIG. 1B) and by nuclear staining with DAPI (FIG. 1C). Next, we determined whether the growth inhibition of SMC by HO-3867 was due to cell cycle arrest or apoptosis. SMCs were treated with 10 μM HO-3867 for 12 or 24 h. The cells were then fixed, and cell cycle populations were determined by flow cytometry.

MMP-9 [3] = test: MMP-9 activity by gelatin zymography in rat carotid artery; assay type: in vivo, Sprague-Dawley rats; details: treatment group compared with injured/untreated group
Description: (§6) MMP-2 and MMP-9 was determined by gelatin zymography as reported previously (Cho and Reidy, 2002). Matrix metalloproteinase-9 is necessary for the regulation of smooth muscle cell replication and migration after arterial injury. Circ Res 91:845-851).
(§7) All experiments involving animals were performed in accordance with the relevant guidelines and regulations approved by the Internal Animal Care and Use Committee of The Ohio State University. Sprague-Dawley rats weighing 300 to 350 g were anesthetized by an intraperitoneal injection of ketamine (6 0 mg/kg) and xylazine (5 mg/kg). Under a stereomicroscope, the right common, external, and internal carotid arteries were exposed by a longitudinal midline cervical incision. Blood flow was temporarily interrupted by ligation of the common and internal carotid arteries using vessel clips. The external carotid artery was ligated permanently using 6-0 silk suture. […]
(§8) Immediately after completion of the carotid injury procedure, subcutaneous administration of HO-3867 (in 10% DMSO+40% polyethylene glycol+50% PBS) commenced at a dose of 5 or 10 mg/kg/day, and continued for 2 weeks (n=5 for each group). […] The intimal and medial areas were measured using MetaMorph software (Molecular Devices, Sunnyvale, Calif.), and intimal/medial ratios were calculated. […]

[4] = tested on: MMP-2, MMP-9, NF-κB p65, pERK1/2, pAkt, cyclin D1, p53, cleaved caspase-3; test: Western blot of regulatory proteins in rat carotid artery tissue after balloon injury; assay type: in vivo, Sprague-Dawley rats
Description: as §1
as §7, with “suture. A 2F Fogarty arterial embolectomy catheter (Edwards Lifesciences, Irvine, Calif.) was introduced through an arteriotomy in the external carotid artery just below the ligature and advanced to the common carotid artery. To produce the injury, the balloon was inflated with saline and passed six times with rotation from just under the proximal edge of the omohyoid muscle to the carotid bifurcation. The balloon was then deflated, and the catheter was withdrawn. Blood flow was restored by removing the clips on the common and internal carotid arteries.” for “suture.”
Immediately after completion of the carotid injury procedure, subcutaneous administration of HO-3867 (in 10% DMSO+40% polyethylene glycol+50% PBS) commenced at a dose of 5 or 10 mg/kg/day, and continued for 2 weeks (n=5 for each group). […] The intimal and medial areas were measured using MetaMorph software (Molecular Devices, Sunnyvale, Calif.), and intimal/medial ratios were calculated.

[5] = tested on: human aortic endothelial cells; test: Inhibitory effect on human aortic endothelial cells; assay type: cell-based; details: 10 μM
PTEN [6] = test: PTEN expression in rat carotid artery tissue after balloon injury; assay type: in vivo, Sprague-Dawley rats; details: subcutaneous, 14 days
Description: as §1, §7, §8

MMP-2 [7] = test: MMP-2 activity by gelatin zymography in rat carotid artery; assay type: in vivo, Sprague-Dawley rats; details: treatment group compared with injured/untreated group
Description: as §6, §7, §8

FAK = FAK expression in SMCs (Western blot); assay type: cell-based, human; details: 10 μM, 24-h exposure
Description: as §1

rat carotid artery = test: Neointimal formation after balloon injury in rat carotid artery (morphometric analysis); assay type: in vivo, Sprague-Dawley rats; details: subcutaneous
Description: All experiments involving animals were performed in accordance with the relevant guidelines and regulations approved by the Internal Animal Care and Use Committee of The Ohio State University. Sprague-Dawley rats weighing 300 to 350 g were anesthetized by an intraperitoneal injection of ketamine (6 0 mg/kg) and xylazine (5 mg/kg). Under a stereomicroscope, the right common, external, and internal carotid arteries were exposed by a longitudinal midline cervical incision. Blood flow was temporarily interrupted by ligation of the common and internal carotid arteries using vessel clips. The external carotid artery was ligated permanently using 6-0 silk suture. A 2F Fogarty arterial embolectomy catheter (Edwards Lifesciences, Irvine, Calif.) was introduced through an arteriotomy in the external carotid artery just below the ligature and advanced to the common carotid artery. To produce the injury, the balloon was inflated with saline and passed six times with rotation from just under the proximal edge of the omohyoid muscle to the carotid bifurcation. The balloon was then deflated, and the catheter was withdrawn. Blood flow was restored by removing the clips on the common and internal carotid arteries. After visual inspection to ascertain adequate pulsation of the common carotid artery, the surgical incision was closed, and the rats were allowed to recover from anesthesia in a humidified and warmed chamber for 2 to 4 h.
as §8, with “group). The control group received the vehicle only. After treatment for 14 days, the animals were sacrificed with an overdose of pentobarbital (200 mg/kg), and the carotid arteries were collected for morphometric analysis and isolation of proteins for analysis by Western blotting.” for “group).”

reactive oxygen species = test: Production of reactive oxygen species in cultured SMCs; assay type: cell-based, human; details: data not shown
Description: as §4

NF-κB p65 = NF-κB p65 expression in SMCs (Western blot); assay type: cell-based, human; details: 10 μM, 24-h exposure
Description: as §1
In addition, HO-3867 inhibited NF-κB p65, one of the main regulator mechanisms in the inflammatory activation of MMP-9 in SMCs (FIG. 5A).

MMP-2 [8] = test: MMP-2 expression in SMCs (Western blot, immunofluorescence); assay type: cell-based, human; details: 10 μM for 12 or 24 h
Description: as §1, §2, §3

PTEN [9] = test: PTEN expression and activation in SMCs (Western blot, immunofluorescence, RT-PCR); assay type: cell-based, human; parameters: PTEN mRNA expression: dose or concentration left out as unconfirmed
Description: as §1, §2
Total RNA was isolated from SMCs using the RNeasy system according to the instructions of the manufacturer. RNA quantification was done using spectrophotometry. Reverse transcription (RT)-PCR analysis for the mRNA expressions in PTEN and the internal control GAPDH was carried out using a GeneAmp PCR System Veriti thermo cycler (Applied Biosystems, Foster City, Calif.) under the following conditions: initial denaturation at 94 C for 2 min, 35 cycles of amplification (denaturation at 94 C for 30 s, annealing at 50 C for 30 s, and extension at 72 C for 30 s), and extension at 72 C for 5 min. The sequences (5′-3′) for the primer pairs of PTEN and GAPDH, respectively, were as follows:
This was further confirmed by immunofluorescence microscopy (FIG. 2B).
To confirm whether the increase in the expression of PTEN was due to its transcriptional induction by HO-3867, we performed RT-PCR analysis for PTEN mRNA.

[10] = tested on: p38 mitogen-activated protein kinase; test: Activation of p38 mitogen-activated protein kinase in cultured SMCs; assay type: cell-based, human; details: data not shown
Description: as §4

[11] = tested on: p53, p21, ERK1/2, cyclin D1, Akt; test: Cell cycle regulatory proteins in SMCs (Western blot); assay type: cell-based, human; details: SMCs treated with HO-3867
Description: as §1

human aortic SMCs [12] = test: Cell cycle analysis by flow cytometry in SMCs; assay type: cell-based; details: 10 μM for 12 or 24 h
Description: Flow cytometry was performed (Selvendiran K, Bratasz A, Tong L, Ignarro L J, and Kuppusamy P, NCX-4016, a nitro-derivative of aspirin, inhibits EGFR and STAT3 signaling and modulates Bcl-2 proteins in cisplatin-resistant human ovarian cancer cells and xenografts. Cell Cycle 7 :8188).
as §5

[13] = tested on: PTEN cDNA-transfected SMCs; test: PTEN cDNA-transfected SMCs treated with HO-3867 (survival, cell cycle, cleaved caspase-3); assay type: cell-based, human
Description: The PTEN siRNA and cDNA transfection experiments were performed as reported (Selvendiran et al., 2007, supra).
We investigated whether the PTEN overexpression was responsible for the inhibition of cell survival and proliferation in SMCs. We used wild-type PTEN cDNA transfection into SMCs for these experiments. Twenty-four hours after transfection, the cells were treated with 10 μM HO-3867 for 12 h.

[14] = Western blot of carotid tissue, 14 days treatment
[15] = 10 μM, as early as 1 h of treatment, immunoblot

For `CC1(C)C=C(CN2C/C(=C\c3ccc(F)cc3)C(=O)/C(=C/c3ccc(F)cc3)C2)C(C)(C)N1O` [HO-3867, 1-[(1-Oxyl-2,2,5,5-tetramethyl-2,5-dihydro-1H-pyrrol-3-yl)methyl]-(3E,5E)-3,5-Bis(4-fluorobenzylidene)piperidin-4-one], the MMP-9 expression (MMP-9 [1]) was “down-regulated”, the “time to ATF-2 activation” value (ATF-2) was ≤ 15 min and the viable cell count (human aortic SMCs [2]; 0, 0.5, 1, 5, and 10 μM for 24 h, FBS-stimulated SMCs) was “decreased in a concentration-dependent manner”. For the same compound, the EC50 (human aortic SMCs [2]; 10% FBS-stimulated human SMCs, HO-3867 for 24 h, viable cell count) was 3.82 µM, the cell-counts (human aortic SMCs [2]; at 1, 5, and 10 μM, 24 h, p<0.05 versus untreated cells) was “Significantly reduced cell-counts” and the MMP-9 activity (MMP-9 [3]) was “significantly down-regulated”. The “apoptosis in vivo (activation of cleaved caspase-3)” value ([4]; 10-mg/kg dose) was “induced apoptosis in vivo”, the “MMP-2, MMP-9, NF-κB p65, pERK1/2, pAkt, and cyclin D1 in tissue” value [4, 14] was “down-regulation” and the “p53 and cleaved caspase-3 in tissue” value [4, 14] was “up-regulation”. The “inhibitory effect on human aortic endothelial cells” value [5] was “did not have any significant inhibitory effect”, the “PTEN level in carotid artery tissue” value (PTEN [6]; 5 mg/kg) was “restored PTEN to the control level” and the “PTEN level in carotid artery tissue” value (PTEN [6]; 10 mg/kg) was “increased the PTEN level significantly above control level”. For the same compound, the MMP-2 activity (MMP-2 [7]) was “significantly down-regulated”, the “expression of FAK” value (FAK) was “down-regulated” and the “inhibition of neointimal formation” value (rat carotid artery; 5 mg/kg, 14 days, data not shown) was “did not show any significant inhibition”. The intima/media ratio (rat carotid artery; daily for 14 days after balloon injury, versus injured/untreated) was “significantly reduced”, the intimal thickening (rat carotid artery; daily for 14 days after balloon injury, 10 mg/kg (FIG. 7A)) was “significantly inhibited” and the “production of reactive oxygen species” value (reactive oxygen species) was “did not detect”. The “NF-κB p65” value (NF-κB p65) was “inhibited”, the MMP-2 expression (MMP-2 [8]) was “down-regulated” and the “PTEN activation (pPTEN)” value (PTEN [9]; [15]) was “induced”. The PTEN expression (PTEN [9]; [15]) was “induced”, the “PTEN mRNA expression” value (PTEN [9]; RT-PCR, in 3 h) was “increase” and the “activation of p38 mitogen-activated protein kinase” value [10] was “did not detect”. The Akt level [11] was “without any change”, the “ERK1/2 and cyclin D1” value [11] was “down-regulation” and the “p53 and p21” value [11] was “induction”. For the same compound, the “sub-G1 population (apoptosis)” value (human aortic SMCs [12]) was “no effect”, the “G1 cell cycle arrest” value (human aortic SMCs [12]; time-dependent) was “induced G1 cell cycle arrest” and the “survival of PTEN cDNA-transfected cells” value ([13]; 10 μM HO-3867, compared with untreated or nontransfected cells) was “even more significant reduction”. For the same compound, the “apoptotic population (sub-G1), PTEN cDNA overexpression plus HO-3867” value ([13]; 10 μM, 12 h, compared with PTEN cDNA- or HO-3867-alone-treated groups) was “significantly increased” and the “cleaved caspase-3 levels, PTEN cDNA+HO-3867-treated cells” value ([13]; 10 μM, 12 h, compared with untreated or nontransfected cells) was “substantial increase”.
